In brackets after ≈: the same amount, converted by molar mass. Read-outs that look alike come from different tables or passages of the source.
Key:
[1] = system: L. infantum promastigotes; assay: Leishmanicidal activity on L. infantum promastigotes (resazurin); assay type: cell-based, Leishmania infantum; conditions: 48 h; for IC50: Leishmania infantum, read-out: Leishmanicidal Activity on Promastigotes, L. infantum, IC50
Protocol: (§1) Culture of L. braziliensis (MHOM/BR/75/M2904), and L. infantum (MHOM/FR/91/LEM2259V) was obtained from the Facultad de Farmacia (Universidad Complutense de, Madrid, Spain). The maintenance of the strains, the form of cultivation, and the isolation of shape promastigota were performed following the procedures described by Roldos et al.. The promastigotes were grown at 22 °C in Schneider’s Drosophila medium supplemented with 20% FBS. The assay was performed using a modification of a previous method. Promastigotes (2 × 10^6 parasites/well) were cultured in 96-well plastic plates. Compounds were dissolved in dimethylsulfoxide (DMSO). Different dilutions of the compounds with a final volume up to 200 µL were added. After 48 h at 26 °C, 20 µL of a 2 mM resazurin solution was added, and the oxidation-reduction was quantified at 570 and 600 nm. The solution of resazurin was prepared at 2.5 mM in phosphate buffered solution (PBS), pH 7.4, and filtered through 0.22 µm prior to use. All tests were carried out in triplicate. Resazurin sodium salt was obtained from Sigma-Aldrich (St. Louis, MO, USA) and stored at 4 °C protected from light. The efficacy of each compound was estimated by calculating the IC50 values.

[2] = Cytotoxicity on NCTC-Clone 929 fibroblasts (resazurin); assay type: cell-based; conditions: mouse
Protocol: The cell line used was NCTC-Clone 929, which was grown in Minimal Essential Medium (Sigma) supplemented with 10% heat-inactivated FBS, penicillin G (100 U/mL), and streptomycin (100 µg/mL). Cell cultures were maintained at 37 °C in a humidified 5% CO2 atmosphere. The procedure for cell viability measurement was evaluated with resazurin by a colorimetric method. The cells were plated in 96-microtiter plates at 3 × 10^4 cells per well in a 100 µL growth medium. The cells were grown overnight at 37 °C, 5% CO2. Thereafter, the medium was removed and the compounds were added in a 200 µL medium for 24 h. After incubation, 20 µL of a 2 mM resazurin solution was added to each well. The plates were incubated for 3 h to allow optimal oxidation-reduction. The reduction of resazurin was determined by dual wavelength absorbance measurement at 490 and 595 nm. Background was subtracted. Each concentration was assayed three times. Medium and drug controls were used in each test as blanks.

[3] = system: L. braziliensis promastigotes; assay: Leishmanicidal activity on L. braziliensis promastigotes (resazurin); assay type: cell-based, Leishmania braziliensis; conditions: 48 h; for IC50: Leishmania braziliensis, read-out: Leishmanicidal Activity on Promastigotes, L. braziliensis, IC50
Protocol: as §1

T. cruzi epimastigotes = assay: Antiepimastigote activity, T. cruzi CL-B5 lacZ (CPRG); assay type: cell-based, Trypanosoma cruzi; conditions: clone CL-B5, 72 h; for IC50: Trypanosoma cruzi
Protocol: For in vitro studies of T. cruzi, the clone CL-B5 was used (donated by Faculty of Pharmacy, Complutense University, Madrid, Spain). Parasites were stably transfected with the Escherichia coli β-galactosidase gene (lacZ). Epimastigotes were grown at 28 °C in liver infusion tryptose broth (Difco, Detroit, MI, USA) with 10% fetal bovine serum (FBS) (Gibco, Carlsbad, CA, USA), penicillin (Ern S.A., Barcelona, Spain), and streptomycin (Reig Jofré S.A., Barcelona, Spain), as described previously, and harvested during the exponential growth phase. Briefly, the screening assay was performed in 96-well microplates (Sarstedt, Inc., Newton, NC, USA) with cultures that had not reached the stationary phase. Epimastigotes were seeded at 2 × 10^5 parasites/mL in 200 µL growth media. The plates were then incubated with the respective compounds at 28 °C for 72 h; afterwards, 50 µL of chlorophenol red-β-D-galactopyranoside (CPRG) solution was added, resulting in a final concentration of 200 µM. The plates were incubated at 37 °C for an additional 4 h and then read at 595 nm. Each concentration was tested in triplicate. The efficacy of each compound was estimated by calculating the IC50 values. These values were calculated by the sigmoidal dose–response curve adjustment using the statistical software program Graph-Pad Prims 3.0 (GraphPhad, San Diego, CA, USA). Benznidazole was used as the reference drug.

SMILES	IC50 ([1]; promastigotes)	IC50 at 24 h [2]	IC50 ([3]; promastigotes)	IC50 (T. cruzi epimastigotes)	IC50 [1]	IC50 [3]	Leishmanicidal Activity on Promastigotes, L. infantum, IC50 ([1]; promastigotes)	Leishmanicidal Activity on Promastigotes, L. braziliensis, IC50 ([3]; promastigotes)	Antiepimastigote Activity of T. cruzi, IC50 (T. cruzi epimastigotes)
CC(C)c1ccc2c(c1)CCC1[C@](C)(C(=O)OCc3cn(-c4ccccc4)nn3)CCC[C@]21C (stereo partly drawn) [Compound 1]	60 µg/mL (≈ 131 µM)	> 256 µg/mL	53 µg/mL (≈ 116 µM)	46 µg/mL (≈ 101 µM)					
CC(C)c1ccc2c(c1)CCC1[C@](C)(C(=O)OCCc3cn(-c4ccccc4)nn3)CCC[C@]21C (stereo partly drawn) [Compound 2]		> 256 µg/mL		> 256 µg/mL	> 256 µg/mL	> 256 µg/mL			
CC(C)c1ccc2c(c1)CCC1[C@](C)(C(=O)OCc3cn(CSc4ccccc4)nn3)CCC[C@]21C (stereo partly drawn) [Compound 3]		> 256 µg/mL		> 256 µg/mL	> 256 µg/mL	> 256 µg/mL			
CC(C)c1ccc2c(c1)CCC1[C@](C)(C(=O)OCCc3cn(CSc4ccccc4)nn3)CCC[C@]21C (stereo partly drawn) [Compound 4]	64 µg/mL (≈ 124 µM)	189 µg/mL (≈ 365 µM)	64 µg/mL (≈ 124 µM)	61 µg/mL (≈ 118 µM)					
CC(C)c1ccc2c(c1)CCC1[C@](C)(COC(=O)CCc3cn(-c4ccccc4)nn3)CCC[C@]21C (stereo partly drawn) [Compound 5]	193 µg/mL (≈ 397 µM)	> 256 µg/mL	218 µg/mL (≈ 449 µM)	223 µg/mL (≈ 459 µM)					
CC(C)c1ccc2c(c1)CCC1[C@](C)(COC(=O)CCCCc3cn(-c4ccccc4)nn3)CCC[C@]21C (stereo partly drawn) [Compound 6]		> 256 µg/mL		> 256 µg/mL	> 256 µg/mL	> 256 µg/mL			
CC(C)c1ccc2c(c1)CCC1[C@](C)(COC(=O)CCc3cn(Cc4ccccc4)nn3)CCC[C@]21C (stereo partly drawn) [Compound 7]		> 256 µg/mL		> 256 µg/mL	> 256 µg/mL	> 256 µg/mL			
CC(C)c1ccc2c(c1)CCC1[C@](C)(COC(=O)CCCCc3cn(Cc4ccccc4)nn3)CCC[C@]21C (stereo partly drawn) [Compound 8]		> 256 µg/mL		> 256 µg/mL	> 256 µg/mL	> 256 µg/mL			
CC(C)c1ccc2c(c1)CCC1[C@](C)(COC(=O)CCc3cn(CSc4ccccc4)nn3)CCC[C@]21C (stereo partly drawn) [Compound 9]		> 256 µg/mL		> 256 µg/mL	> 256 µg/mL	> 256 µg/mL			
CC(C)c1ccc2c(c1)CCC1[C@](C)(COC(=O)CCCCc3cn(CSc4ccccc4)nn3)CCC[C@]21C (stereo partly drawn) [Compound 10]		> 256 µg/mL		> 256 µg/mL	> 256 µg/mL	> 256 µg/mL			
COc1ccc(-n2cc(CCC(=O)OC[C@]3(C)CCC[C@]4(C)c5ccc(C(C)C)cc5CCC34)nn2)cc1 (stereo partly drawn) [Compound 11]		> 256 µg/mL		> 256 µg/mL	> 256 µg/mL	> 256 µg/mL			
COc1ccc(-n2cc(CCCCC(=O)OC[C@]3(C)CCC[C@]4(C)c5ccc(C(C)C)cc5CCC34)nn2)cc1 (stereo partly drawn) [Compound 12]		> 256 µg/mL		> 256 µg/mL	> 256 µg/mL	> 256 µg/mL			
CC(C)c1ccc2c(c1)CCC1[C@](C)(COC(=O)CCc3cn(Cc4cccc(Cl)c4)nn3)CCC[C@]21C (stereo partly drawn) [Compound 13]		> 256 µg/mL	242 µg/mL (≈ 453 µM)	> 256 µg/mL	> 256 µg/mL				
CC(C)c1ccc2c(c1)CCC1[C@](C)(COC(=O)CCCCc3cn(Cc4cccc(Cl)c4)nn3)CCC[C@]21C (stereo partly drawn) [Compound 14]		> 256 µg/mL		> 256 µg/mL	> 256 µg/mL	> 256 µg/mL			
Cc1ccc(S(=O)(=O)n2cc(CCC(=O)OC[C@]3(C)CCC[C@]4(C)c5ccc(C(C)C)cc5CCC34)nn2)cc1 (stereo partly drawn) [Compound 15]	53 µg/mL (≈ 94 µM)	232 µg/mL (≈ 412 µM)	89 µg/mL (≈ 158 µM)	69 µg/mL (≈ 122 µM)					
Cc1ccc(S(=O)(=O)n2cc(CCCCC(=O)OC[C@]3(C)CCC[C@]4(C)c5ccc(C(C)C)cc5CCC34)nn2)cc1 (stereo partly drawn) [Compound 16]	73 µg/mL (≈ 123 µM)	129 µg/mL (≈ 218 µM)	71 µg/mL (≈ 120 µM)	199 µg/mL (≈ 336 µM)					
C#CCCC(=O)O[C@H]1CC[C@@]2(C)C(CC[C@]3(C)C2CC=C2[C@@H]4CC(C)(C)CC[C@]4(C(=O)O)CC[C@]23C)C1(C)C (stereo partly drawn) [Compound 17]	> 256 µg/mL	196 µg/mL (≈ 365 µM)	> 256 µg/mL	252 µg/mL (≈ 469 µM)					
C#CCCC(=O)O[C@H]1CC[C@@]2(C)C(CC[C@]3(C)C2CC=C2[C@@H]4CC(C)(C)CC[C@]4(C(=O)OC)CC[C@]23C)C1(C)C (stereo partly drawn) [Compound 18]		> 256 µg/mL		> 256 µg/mL	> 256 µg/mL	> 256 µg/mL			
C#CCCCC(=O)O[C@H]1CC[C@@]2(C)C(CC[C@]3(C)C2CC=C2[C@@H]4CC(C)(C)CC[C@]4(C(=O)O)CC[C@]23C)C1(C)C (stereo partly drawn) [Compound 19]	155 µg/mL (≈ 281 µM)	> 256 µg/mL	109 µg/mL (≈ 198 µM)	> 256 µg/mL					
COC(=O)[C@]12CCC(C)(C)C[C@H]1C1=CCC3[C@@]4(C)CC[C@H](OC(=O)CCCc5cn(S(=O)(=O)c6ccc(C)cc6)nn5)C(C)(C)C4CC[C@@]3(C)[C@]1(C)CC2 (stereo partly drawn) [Compound 32]				> 256 µg/mL	> 256 µg/mL	> 256 µg/mL			
CC1(C)CC[C@]2(C(=O)O)CC[C@]3(C)C(=CCC4[C@@]5(C)CC[C@H](OC(=O)CCCc6cn(CSc7ccccc7)nn6)C(C)(C)C5CC[C@]43C)[C@@H]2C1 (stereo partly drawn) [Compound 33]				> 256 µg/mL	> 256 µg/mL	> 256 µg/mL			
COC(=O)[C@]12CCC(C)(C)C[C@H]1C1=CCC3[C@@]4(C)CC[C@H](OC(=O)CCCc5cn(CSc6ccccc6)nn5)C(C)(C)C4CC[C@@]3(C)[C@]1(C)CC2 (stereo partly drawn) [Compound 34]				> 256 µg/mL	> 256 µg/mL	> 256 µg/mL			
CC(C)c1ccc2c(c1)CC[C@H]1[C@](C)(C(=O)O)CCC[C@]21C [DHA, Dehydroabietic acid]	72 µg/mL (≈ 240 µM)		44 µg/mL (≈ 146 µM)	212 µg/mL (≈ 706 µM)					
CC(C)c1ccc2c(c1)CC[C@H]1[C@](C)(CO)CCC[C@]21C [Dehydroabietinol, dehydroabietinol, reference compound]							40 µg/mL	63 µg/mL	66 µg/mL
N=C(N)c1ccc(OCCCCCOc2ccc(C(=N)N)cc2)cc1 [Pentamidine, reference compound]	3.3 µg/mL (≈ 9.69 µM)		3.3 µg/mL (≈ 9.69 µM)						
